Assay results: US7312323B2, “Enzymes and polynucleotides encoding the same” (The Horticulture and Food Research Institute of New Zealand …, priority 2002, dated 2007)

Tests used:
Germacrene D synthase = Germacrene D synthase (Actinidia deliciosa, UniProt Q32W37); test: Kinetic studies with 3H-FDP, pentane overlay scintillation assay; assay type: biochemical; settings: for effect of added ions on activity: 50 mM KCl or NaCl; for inhibition at high concentrations of the chloride salts: >5 mM and 10 mM of the respective Mg2+ and Mn2+ chloride salts
Protocol: Optimisation of large-scale production of protein and protein kinetics: E. coli BL21-PlusTM-RIL cells harbouring pET-30a75565 were grown overnight at 37° C. in Lauria-Bertani media supplemented with 30 μg ml^-1 kanamycin and 34 μg ml chloramphenicol^-1. 5 mL aliquots of overnight culture were used to inoculate 4×300 mL of fresh 2× YT medium supplemented with 30 μg ml^-1 […] 34 μg ml^-1 chloramphenicol in 1 L baffled flasks. Cultures were grown at 37° C. with vigorous agitation to A600=0.8, then removed to 4° C. to equilibrate to 16° C. before induction with 0.3 mM IPTG. Induced cultures were then incubated at 16° C. and 220 rpm for a further 72 hours. Cells were pelleted by centrifugation (2500×g; 10 min) and stored overnight at -20° C. The following day cell pellets were resuspended in 20 mL His6 binding buffer and cells were disrupted by 2 passes through an EmulsiFlex®-C15 high-pressure homogeniser (Avestin) with a pressure setting between 15000-20000 psi. Cell debris was pelleted by centrifugation 2× at 10000×g for 15 min; 4° C. (Sorval SS34 rotor). […] Filtered extract was desalted and passed over a Nickel affinity column. Concentration of the recombinant synthase in the purified protein extracts was estimated from SDS-PAGE gels by comparing against a BenchMarkTM Protein Ladder (Invitrogen). Purified extracts were adjusted to a workable concentration with His6 elution buffer (without Imidazole) containing 10% glycerol and 1 mM DTT. The extract was then separated into 100 μl aliquots and stored at -80° C. until required. […] Kinetic Studies: […] Tritiated FDP was added variously depending on the experiment. One mL assays containing 100-150 ng of the recombinant synthase were overlaid with 0.6 mL pentane and incubated in 1.5 mL microfuge tubes for 2 hours at 30° C. and 150 rpm. All assays were performed in triplicate. Following incubation assays were immediately placed on ice and a 200 μL aliquot of the pentane layer removed for analysis. The aliquots were added to 1.5 mL microfuge tubes containing 0.7 mL Organic Counting Scintillant (OCS) (Amersham) and vortexed briefly. Scintillation analysis was performed using a Wallac 1409 Liquid Scintillation Counter (^3H efficiency≈70%). […] The effect on enzyme activity of metal co-factors with and without salts was also tested. Mg^2+ and Mn^2+ were added in the presence and absence of 50 mM KCL and 50 mM NaCl in all possible combinations. Controls included incubation without enzyme, with enzyme but without metal ion cofactors and with enzyme and cofactors in the presence of 10 mM EDTA. A further control comprising His6 purified pET-30a extract was also assayed to determine potential utilisation of FDP by co-purifying bacterial proteins. […] Kinetic constants were determined from the DPM data by nonlinear regression using the Origin50 graphics package.

house dust mites = settings: Chang et al. 2001; cited from earlier work
[1] = Thermal rearrangement, pentane extracts from purified protein injected at different port temperatures; assay type: physicochemical
Protocol: Dynamic headspace methods were also used to collect the headspace volatiles from the purified extracts on to 100 mg Chromosorb 105 adsorbent traps. The protein was placed into 50 mL Quickfit® test tubes, which were fitted with a headspace adaptor with an air inlet and outlet. Volatiles were collected onto the Chromosorb 105 adsorbent traps, which were fitted to the air outlet port of each adaptor. The volatiles were purged from the vessel onto the traps with clean air at 50 mL min^−1 for 18 hours. The traps were stored at −15° C. for up to one week, and then subjected to GC-FIDIMS analysis. Finally, pentane extracts were taken from the purified extracts. An aliquot (2.5 ml) of pentane was added to the purified extracts and was left to extract for 18 hours. The pentane was removed and then concentrated with a stream of N2 gas. This was then injected onto the GC-MS at 150° C.
More light can be shed on the possibility of rearrangement of the products using pentane extraction.
In an experiment to test for thermal rearrangement, injections of pentane extract from purified protein were made at temperatures of 125, 150 and 210° C.; or pentane extract from Actinidia flowers were made at temperatures of 100, 125, 150 and 210° C. […] Germacrene B modulated slightly in response to temperature shifts although no gamma-elemene was found as might be predicted. In addition the predicted precursor for delta elemene—germacrene C (Feger et al., Flavour and Fragrance Journal 15: 170-173 (2000)) was not detected at any time. Germacrene A was also not detected at any time. […] Elemol may arise from further rearrangements of delta-elemene or from other elemene sources or from hedycaryol (Chamblee et al., J. Essent. Oil Res. 9: 127-132 (1997)). No GC-MS traces in any experiments indicated evidence for germacrene-C or for hedycaryol.

[2] = Thermal rearrangement, pentane extracts from Actinidia flowers injected at different port temperatures; assay type: physicochemical
Protocol: Whole flowers of the same plants were also harvested at anthesis in 2000. 18.6 g and 21 g of flowers from a mixture of developmental stages were placed in 2× Quickfit® Erlenmeyer flasks as above. Volatiles were collected onto a Chromosorb adsorbent trap in duplicate, after the system had been equilibrated for 30 min at room temperature (ca. 23° C.), by purging onto the trap with clean air at 25 mL min^−1 for 60 minutes. The trap was stored at −15° C. for one week and then analysed by GC-FD/MS. The same petals (1.99 g) were then extracted with pentane-ether (2 ml) and stored at −20° C. until analysed. The pentane (GPR, BDH) had been purified by distillation and by passing through a column of activated alumina. Pentane extracts were reduced by rotary evaporation and were dried by passing through a small column of anhydrous MgSO4 before the volume was reduced to ca. 50 μL under a gentle stream of nitrogen. The extract was analysed by GC-FID/MS.
GC-MS Analysis of dynamic headspace samples and pentane extracts: Volatile compounds were thermally desorbed from the headspace traps at 150° C. and were cryo-focussed at the beginning of the GC column (Young, 1981). The column outlet was split between the GC (Hewlett Packard 5890) FID detector (for quantitation) and VG-70SE (VG-Micromass, Manchester, U.K.) mass spectrometer (for component identification) with an electron impact ionisation of 70 eV. Separations were carried out in a 30 m×0.32 mm i.d., 0.5 μn DBWax capillary column (J & W Scientific, Folsom, USA), starting at 30° C. for 6 min, increasing by 3° C. min^−1 to 102° C., 5° C. min^−1 to 210° C. and held for 5 min. Injector temperature was 210° C. The carrier gas was He at a flow rate of ˜30 cm s^−1, and the FID and mass spectrometer transfer line were at 210° C. Quantification of compounds was carried out using an average detector response based on methyl butanoate, ethyl butanoate, hexanol and methyl benzoate. Components were identified by comparison with spectra in the mass spectral database (NIST 1998, Wiley 7 and an in-house database), retention indices (in-house database) and in some cases direct GC-MS comparison with authentic standards. Separations for the earlier 2000 samples were carried out in the same manner as above except the programme started at 30° C. for 6 min, increasing by 3° C. min^−1 to 102° C., 5° C. min^−1 to 190° C. and held for 5 min. Analysis of the pentane extract used a programme of 2 min at 40° C., 5° C. min^−1 to 200° C., 15° C. m^−1 to 240° C. and held for 20 min. For genotype 32-10-07a: the GC-MS was programmed to start at 30° C. for 2 min, increasing by 3° C. min^−1 to 50° C., 5° C. min^−1 to 130° C., 10° C. min^−1 to 240° C. and held for 2 min. Injector temperature was 240° C.
In an experiment to test for thermal rearrangement, injections of pentane extract from purified protein were made at temperatures of 125, 150 and 210° C.; or pentane extract from Actinidia flowers were made at temperatures of 100, 125, 150 and 210° C.

[3] = test system: other sesquiterpene synthases; settings: read-out: Km in the literature; cited from earlier work
[4] = test system: multifunctional germacrene D synthase; test: Headspace volatiles above E. coli BL21 cultures harbouring pET30a75565, PDMS/DVB SPME; assay type: cell-based, Actinidia deliciosa; settings: bacterial cultures
Protocol: Expression and characterization of multifunctional germacrene D synthase from bacterial cultures: E. coli BL21-Plus™-RIL cells harbouring pET30a75565, or empty pET30a vector as a control, were grown overnight at 37° C. in Luria-Bertani media supplemented with 30 μg/mL kanamycin and 50 μg/mL chloramphenicol. […] of overnight culture was used to inoculate 50 mL of fresh 2× YT medium supplemented with 30 μg/mL kanamycin and 50 μg/mL chloramphenicol. […] The culture was immediately transferred to an incubator set at 16° C., 30° C. or 37° C. depending on the experiment The headspace in the vessels above the bacterial cultures was collected immediately after the addition of FDP (or GDP) and hexadecane (the internal standard) using solid phase micro extraction (SPME). […] The background was analysed for contamination using GC-FID (HP5890) prior to use. The headspace volatiles were collected for ˜20 hours at 30° C. with continuous agitation (110 rpm). Prior to analysis using a GC-FID/MS, the fibres were stored at ambient temperature in septum sealed glass vials. The PDMS/DVB fibres were desorbed in the injector at 260° C.

[5] = test system: multifunctional germacrene D synthase (EST75565); test: Sesquiterpene products of purified recombinant protein + FDP, headspace trapping GC-MS; assay type: biochemical, Actinidia deliciosa
Protocol: Characterization of multifunctional germacrene D synthase from bacterial extracts and purified recombinant protein: E. coli BL21-Plus™-RIL cells harbouring pET-30a75565 were grown overnight at 37° C. in Lauria-Bertani media supplemented with 30 μg ml^−1 kanamycin and 34 μg ml chloramphenicol^−1. 5 mL aliquots of overnight culture were used to inoculate 4×300 mL of fresh 2× YT medium supplemented with 30 μg ml^−1 kanamycin and 34 μg ml^−1 chloramphenicol in 1 L baffled flasks. Cultures were grown at 37° C. with vigorous agitation to A600=0.8, then removed to 4° C. to equilibrate to 16° C. before induction with 0.3 mM IPTG. Following induction, cultures were immediately transferred to a 16° C. incubator and allowed to grow for a further 24 hours with continuous agitation and then harvested by centrifugation (2000×g for 10 min). […]
The headspace in the testubes was collected immediately after the addition of FDP (or GDP) and hexadecane (internal standard) using solid phase micro extraction (SPME). […] The background was analysed for contamination using GC-FID (HP5890) prior to use. […]
The volatiles were desorbed from the fibres in the GC injection port for 10 minutes at 220° C. for the Carbowax/DVB fibres. […] Semi-quantitative data was obtained by measuring sample peak area relative to hexadecane internal standard. […]

[6] = injection port temperature 125 °C
[7] = injection port temperature 150 °C
[8] = injection port temperature 210 °C

## CC(C)=CCC/C(C)=C/CC/C(C)=C/CO[P@@](=O)(O)OP(=O)(O)O (stereo in doubt) [FDP, farnesyl diphosphate]
Germacrene D synthase; saturating Mg2+, pH 7.5, 30 °C
  Km: 1 to 2 µM

## CC1=C[C@@H]2[C@@H](CC1)[C@](C)(O)CC[C@H]2C(C)C [Alpha-cadinol]
House dust mites
  miticidal activity: potent miticide

## C=C[C@]1(C)CC[C@@H](C(C)(C)O)C[C@H]1C(=C)C [Elemol]
[1]; [6]
  Peak Area: ca. 9 × 10^4^
[1]; [7]
  Peak Area: ca. 1.4 × 10^5^
[1]; [8]
  Peak Area: 5.75 × 10^6
[2]; [7]
  Peak Area: ca. 8.4 × 10^6
[2]; [8]
  Peak Area: 3.78 × 10^7

## CC(C)=CCC/C(C)=C/CC/C(C)=C/COP(=O)(O)OP(=O)(O)O [FDP, farnesyl diphosphate]
[3]
  Km: 0.4 to 4.5 µM
Germacrene D synthase
  saturating concentration of FDP: ~7.5 µM
Germacrene D synthase; 1 mM substrate concentration
  inhibition by substrate: ~50%

## CC(C)=CCC/C(C)=C/COP(=O)(O)OP(=O)(O)O [GDP, geranyl diphosphate]
[4]
  products on addition of GDP instead of FDP: did not result in the production of any monoterpenes
[5]
  products on addition of GDP instead of FDP: did not produce any germacrene D

## CC(C)=C1C/C=C(\C)CC/C=C(\C)CC1 [Germacrene B]
[1]; [6]
  Peak Area: 7.57 × 10^5
[1]; [7]
  Peak Area: 8.58 × 10^5
[1]; [8]
  Peak Area: 5.87 × 10^5
[2]; injection port temperature 100 °C
  Peak Area: 5.0 × 10^6
[2]; [6]
  Peak Area: 7.40 × 10^6
[2]; [7]
  Peak Area: 1.0 × 10^7
[2]; [8]
  Peak Area: 3.92 × 10^6

## [K+] [K^+]
Germacrene D synthase
  effect of added ions on activity: little or no effect

## [Mg+2] [Mg^2+]
[3]
  Km: 70 to 150 µM
Germacrene D synthase
  inhibition at high concentrations of the chloride salts: No significant inhibition

## [Mn+2] [Mn^2+]
[3]
  Km: 7 to 30 µM
Germacrene D synthase
  Vrel with Mn2+ as cofactor relative to Mg2+: ~27%
  effect of Mn in the buffer when Mg2+ present: inhibition of activity
  inhibition at high concentrations of the chloride salts: No significant inhibition

## [Na+] [Na^+]
Germacrene D synthase
  effect of added ions on activity: little or no effect

## C=C[C@@]1(C)CCC(C(C)C)=C[C@@H]1C(=C)C [δ-Elemene]
[1]; [8]
  Peak Area: 9.05 × 10^5
[2]; [7]
  Peak Area: ca. 5.7 × 10^5
[2]; [8]
  Peak Area: 4.14 × 10^6

B1: Germacrene D synthase: recombinant His6-tagged sesquiterpene synthase from Actinidia deliciosa petals, SEQ ID NO:2 (protein, listed as Actinidia deliciosa)
chain: MQLPCAQALPIPTVTTTTSIEPPHVTRRSANYHPSIWGDHFLAYSSDAMEEEVINMEQQQRLHHLKQKVRKMLEAAAEQSSQMLNLVDKIQRLGVSYHFETEIETALRHIYKTCDYHFDDLHTAALSFRLLRQQGYPVSCDMFDKFKNSKGEFQESIISDVQGMLSLYEATCLRIHGEDILDEALAFTITQLRSALPNLSTPFKEQIIHALNQPIHKGLTRLNARSHILFFEQNDCHSKDLLNFAKLDFNLLQKLHQRELCEITRWWKDLNFAKTLPFARDRMVECYFWILGVYFEPQYLLARRMLTKVIAMISIIDDIYDVYGTLEELVLFTDAIERWEISALDQLPEYMKLCYQALLDVYSMIDEEMAKQGRSYCVDYAKSSMKILVRAYFEEAKWFHQGYVPTMEEYMQVALVTAGYKMLATSSFVGMGDLATKEAFDWVSNDPLIVQAASVIGRLKDDIVGHKFEQKRGHVASAVECYSKQHGTTEEEAIIELDKQVTHSWKDINAECLCPIKVPMPLLARVLNLARVLYVIYQDEDGYTHPGTKVENFVTSVLIDSMPIN
modifications: His6 tag
Germacrene D synthase; 0.5 pH units lower than 7.5
  decrease in enzyme activity: 47%
Germacrene D synthase; 1 pH unit higher than 7.5
  decrease in enzyme activity: 59%
Germacrene D synthase; 16 °C
  activity relative to optimal temperature activity: ~56%
Germacrene D synthase; 50 °C
  activity at high temperature: Little or no activity
Germacrene D synthase; optimal conditions, without DTT
  Vrel in the absence of DTT: ~53%
Germacrene D synthase; range 16-50 °C, 10 mM MgCl2, 10 μM FDP
  temperature of maximum synthase activity: 30 °C
Germacrene D synthase; tri-buffer system pH 5.7-9.5, 10 mM MgCl2, 10 μM FDP
  pH optimum: 7.5
